From patent US4489089A, “Substituted N-[ω-(1H-imidazol-1-yl)alkyl]-amides” (American Cyanamid Company, priority 1984, dated 1984)

How the values were obtained:
[1] = molecular target: T1, thromboxane synthetase (Rattus norvegicus, UniProt P49430); test: inhibition of thromboxane (TX) formation in rat platelets, TXB2 determined by radio-immunoassay (RIA); type: cell-based, Okamoto-Aoki spontaneously hypertensive rats (SHR); settings: 10^-4 M; SHR washed platelets; 10 minutes at 37° C.
T1 construct: The platelets were isolated by centrifuging the PRP for 10 minutes at 1060×g; endogenous in cells; host or cells: washed platelets from arterial blood of Okamoto-Aoki spontaneously hypertensive rats (Taconic Farms)
T1 sequence (P49430 1-533): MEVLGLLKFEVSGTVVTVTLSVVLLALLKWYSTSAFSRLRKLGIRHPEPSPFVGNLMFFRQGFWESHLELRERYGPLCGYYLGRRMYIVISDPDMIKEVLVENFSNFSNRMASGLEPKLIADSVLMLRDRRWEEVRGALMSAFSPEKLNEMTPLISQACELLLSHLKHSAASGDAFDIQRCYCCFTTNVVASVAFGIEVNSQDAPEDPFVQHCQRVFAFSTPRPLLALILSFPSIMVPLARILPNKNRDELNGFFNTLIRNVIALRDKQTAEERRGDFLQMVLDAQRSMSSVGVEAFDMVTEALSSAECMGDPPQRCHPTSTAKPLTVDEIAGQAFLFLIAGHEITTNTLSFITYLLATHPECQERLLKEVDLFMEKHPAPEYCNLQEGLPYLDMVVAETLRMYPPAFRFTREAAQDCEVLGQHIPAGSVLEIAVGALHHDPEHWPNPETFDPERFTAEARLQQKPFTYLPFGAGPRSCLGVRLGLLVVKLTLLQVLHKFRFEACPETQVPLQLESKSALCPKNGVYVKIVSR
Procedure: Under urethan anesthesia, […]. of arterial blood was collected in one ml. of 3.2% sodium citrate in a polystyrene tube from Okamoto-Aoki spontaneously hypertensive rats (SHR) (Taconic Farms, Germantown, NY) between 19 and 24 weeks in age. The blood was diluted with 3 ml. cold saline and centrifuged at room temperature for 15 minutes at 460×g. The platelet rich plasma (PRP) was separated. The platelets were isolated by centrifuging the PRP for 10 minutes at 1060×g and were washed in 4 ml. cold oxygenated Krebs phosphate buffer, pH 7.4. The chilled platelets recovered from centrifuging at 800×g for 10 minutes were resuspended in oxygenated Krebs phosphate buffer and diluted to contain 4.5-6.0×10^4 platelts/μl.
The inhibition of thromboxane (TX) formation was studied by determing the concentration of thromboxane B2 (TXB2), the stable hydrolysis product of TXA2. Assay samples, prepared on ice, contained 200 μl. platelet suspension, 50 μl. saline, and 50 μl. vehicle or drug under study (OKY-1581, UK-37248-01, 1-benzylimidazole, or indomethacin). The samples were incubated for 10 minutes at 37° C. in a metabolic shaker. The reaction was terminated by immersing the tubes in an ice bath and adding 50 μl. of 0.5M citric acid. The samples were centrifuged for 10 minutes in a refrigerated centrifuge and the supernatants thus obtained were decanted and stored at -20° C. The TXB2 content for each sample was determined by a direct radio-immunoassay (RIA) utilizing a TXB2 specific RIA kit purchased from New England Nuclear, Boston, MA and expressed as pg TXB2 formed minute^-1 sample^-1, from which the percent inhibition of TXB2 formation was calculated. The results of this test on representative compounds of this invention appear in Table I

[2] = test system: spontaneously hypertensive rats of the Okamoto strain; test: hypotensive activity (mean arterial blood pressure) in spontaneously hypertensive rats; type: in vivo; settings: 100 mg/kg or less by gavage, two doses 24 h apart; measured 28 hours after initial dose; mean of 1-3 rats; starting MABP 160±1.5 mm
Procedure: The novel compounds of the present invention are also active hypotensive agents and were tested for hypotensive activity by the method of P. S. Chan and D. Poorvin, Clinical and Experimental Hypertension, 1 (6), 817-830 (1979). Male, 16 week old, spontaneously hypertensive rats of the Okamoto strain, from Taconic Farms, Germantown, N.Y. having an average mean arterial blood pressure of 160±1.5 mm of mercury are used in the test. One to 3 rats are used per test compound. A rat is dosed by gavage with a test compound, suspended in 2% pre-boiled starch at a concentration of 50 mg/ml, at a dose of 100 mg/kg of body weight or less, with 0.9% sodium chloride loading at a dose 25 ml/kg of body weight. A second identical dose of the test compound, without sodium chloride loading is given 24 hours later. At 28 hours after the initial dose, the mean arterial blood pressure (MABP) is measured by the method of Chan and Poorvin vide supra. The procedure is repeated in a second and third rat when necessary. Based on the data obtained and using the three-stage "sequential probability ratio test" statistical method, the critieria for activity or retest are as follows:
If the blood pressure in the first rat is ≤116 mm mercury the compound is considered active. If the blood pressure is between […], a second rat is used. If the average blood pressure of the first and second rats is ≤122 mm the compound is considered active. If the average blood pressure is between 123 and 137 mm, a third rat is used. If the average blood pressure of the three rats is ≤128 mm the compound is considered active. The results of this test on representative compounds of the present invention appear in Table II below.

SMILES | inhibition at 100 µM [1] | MABP (mean arterial blood pressure) [2]
O=C(NCCCn1ccnc1)c1ccco1 [Example 1, N-[3-(1H-Imidazol-1-yl)propyl]-2-furanecarboxamide] | 97% | –
O=C(NCCCn1ccnc1)c1sc2ccccc2c1Cl [Example 2, 3-chloro-N--[3-(1H--imidazol-1-yl)propyl]benzo[b]thiophene-2-carboxamide] | 100% | –
O=C(NCCCn1ccnc1)c1sc2cc(F)ccc2c1Cl [Example 3, 3-chloro-6-fluoro-N--[3-(1H--imidazol-1-yl)propyl]benzo[b]thiophene-2-carboxamide] | 96% | –
Cc1ccc2c(Cl)c(C(=O)NCCCn3ccnc3)sc2c1 [Example 4, 3-chloro-N--[3-(1H--imidazol-1-yl)propyl]-6-methyl-benzo[b]thiophene-2-carboxamide] | 96% | –
O=C(NCCCn1ccnc1)c1ccoc1 [Example 5, N-[3-(1H-Imidazol-1-yl)propyl]-3-furanecarboxamide] | 78% | 128 mm Hg
O=C(NCCCn1ccnc1)c1ccc(Br)o1 [Example 6, 5-bromo-N--[3-(1H--imidazol-1-yl)propyl]-2-furanecarboxamide] | 82% | –
O=C(NCCCn1ccnc1)c1cccs1 [Example 7, N--[3-(1H--imidazol-1-yl)propyl]-2-thiophenecarboxamide] | 93% | –
Cc1ccc(C(=O)NCCCn2ccnc2)s1 [Example 8, N--[3-(1H--imidazol-1-yl)propyl]-5-methyl-2-thiophenecarboxamide] | 96% | –
O=C(NCCCn1ccnc1)c1cc(Br)c(Br)s1 [Example 9, 4,5-dibromo-N--[3-(1H--imidazol-1-yl)propyl]-2-thiophenecarboxamide] | 100% | –
O=C(NCCCn1ccnc1)c1cc2ccccc2o1 [Example 10, N--[3-(1H--imidazol-1-yl)propyl]-2-benzofuranecarboxamide] | 97% | –
O=C(NCCCn1ccnc1)c1cc2cc(Cl)ccc2s1 [Example 11, 5-chloro-N--[3-(1H--imidazol-1-yl)propyl]benzo[b]thiophene-2-carboxamide] | 100% | –
O=C(C=Cc1ccco1)NCCCn1ccnc1 [Example 14, N--[3-(1H--imidazol-1-yl)propyl]-3-(2-furanyl)-2-propenamide] | 78% | –
O=C(C=Cc1cccs1)NCCCn1ccnc1 [Example 15, N--[3-(1H--imidazol-1-yl)propyl]-3-(2-thienyl)-2-propenamide] | 100% | –
O=C(NCCCn1ccnc1)c1ccc([N+](=O)[O-])o1 [Example 16] | 64% | 114 mm Hg
O=C(CCCc1cccs1)NCCCn1ccnc1 [Example 17, N--[3-(1H--imidazol-1-yl)propyl]-2-thiophenebutyramide] | – | 121 mm Hg
O=C(NCCCn1ccnc1)C(=O)c1cccs1 [Example 18, N--[3-(1H--imidazol-1-yl)propyl]-α-oxo-thiophene acetamide] | 73% | 125 mm Hg
O=C(NCCCn1ccnc1)c1ccc(Cl)s1 [Example 19, 5-chloro-N--[3-(1H--imidazol-1-yl)propyl]thiophene-2-carboxamide] | 95% | 125 mm Hg
O=C(NCCn1ccnc1)c1sc2ccccc2c1Cl [Example 20, 3-Chloro-N-[2-(1H-imidazol-1-yl)ethyl]benzo[b]thiophene-2-carboxamide] | 70% | 117 mm Hg
CCc1nccn1CCCNC(=O)c1sc2ccccc2c1Cl [Example 22, 3-chloro-N--[3-(2-ethyl-1H--imidazol-1-yl)propyl]benzo[b]thiophene-2-carboxamide] | 55% | –
Cc1cn(CCCNC(=O)c2sc3ccccc3c2Cl)cn1 [Example 24, 3-chloro-N--[3-(4-methyl-1H--imidazol-1-yl)propyl]benzo[b]thiophene-2-carboxamide] | 98% | –
Cc1cn(CCCNC(=O)c2cccs2)cn1 [Example 25, N--[3-(4-methyl-1H--imidazol-1-yl)propyl]thiophene-2-carboxamide] | 51% | –
O=C(NCCCCn1ccnc1)c1ccco1 [Example 28, N-[4-(1H-Imidazol-1-yl)butyl]-2-furanecarboxamide] | 87% | –
O=C(NCCCCn1ccnc1)c1sc2ccccc2c1Cl [Example 29, 3-chloro-N--[4-(1H--imidazol-1-yl)butyl]benzo[b]thiophene-2-carboxamide] | 91% | –
O=C(NCCCCn1ccnc1)c1ccc(Cl)s1 [Example 30, 5-chloro-N--[4-(1H--imidazol-1-yl)butyl]thiophene-2-carboxamide] | – | 118 mm Hg
O=C(NCCCCn1ccnc1)c1cccs1 [Example 31, N--[4-(1H--imidazol-1-yl)butyl]thiophene-2-carboxamide] | 95% | 114 mm Hg
